By IC50 is commonly meant the midpoint of a concentration-inhibition curve.

The values that follow come from patent US7713969B2, “Compositions and methods for treatment of cancer” (ArQule, Inc., priority 2005, dated 2010).

One assay deals with HT29. Nature of the assay: Cell viability MTS assay. The assay is classed as cell-based, human. The method, then:
(§1) Cell viability was determined by measuring the activity of dehydrogenase enzymes in metabolically active cells using a tetrazolium compound, MTS. The assay was performed as described in Promega Technical Bulletin No. 169 (CellTiter 96 Aqueous Non-Radioactive Cell Proliferation Assay). Thirteen human cancer cell lines were assayed (see, e.g., Table 1). Cells were maintained at 37° C., 5% CO2. Adherent cells were maintained DMEM media (4.5 g/L glucose) supplemented with 15% heat-inactivated FBS, 10 mM L-glutamine, and 10 mM Hepes pH 7.5. Suspension cells were maintained in RPMI 1640 media, supplemented with 10% heat-inactivated FBS and 10 mM Hepes pH 7.5. Briefly, cells were seeded in 96-well plates as set forth in Table 1 and incubated for 16-24 hours. Candidate compounds were serially diluted in DMSO, further diluted in cell culture media, and then added to cells (final DMSO concentration of 0.33%). Cells were incubated in the presence of candidate compound for 72 hours. MTS stock solution (MTS 2 gm/L, PMS […] in PBS) was added to the cells (final concentration MTS […] and PMS 7.67 mg/L) and incubated for 4 hours. SDS was added to a final concentration of 1.4% and absorbance at 490 nm was measured within two hours using a platereader. The IC50 was defined as the concentration of compound that results in a 50% reduction in the number of viable cells as compwered to control wells treated with DMSO only (0.33%) and was calculated using non-linear regression analyswas. IC50 values were given in Table 2 for the compounds listed.
A general note: Tetrazolium dyes change colour on reduction, which living cells bring about.

The next assay deals with MDA-MB-231. Nature of the assay: Cell viability MTS assay. The assay is classed as cell-based, human. The procedure: as §1
Setting [1] is: Homo sapiens, HT-29, 72 hours with compound.
Setting [2] is: Homo sapiens, MDA-MB-231, 72 hours with compound.

For the compound “3-(4-Benzoyloxyphenyl)-4-(5,6-dihydro-4H-pyrrolo[3,2,1-ij]quinolin-1-yl)-pyrrole-2,5-dione [Example 29]”, the IC50 in the assay on HT29 (72 hours with compound) and in the assay on MDA-MB-231 (72 hours with compound) was more than 100 µM each time.

Consider “3-(5,6-dihydro-4H-pyrrolo[3,2,1-ij]quinolin-1-yl)-4-(4-fluorophenyl)-1H-pyrrole-2,5-dione [Example 67]”, for which the IC50 in the assay with HT29 (72 hours with compound) worked out at 53.1 µM.

Take `O=C1[C@@H](c2c[nH]c3ccccc23)[C@H](c2cn3c4c(cccc24)CCC3)C(=O)N1COP(=O)(O)O` (racemic) [(±)-Phosphoric acid mono-[trans-3-(5,6-dihydro-4H-pyrrolo[3,2,1-ij]quinolin-1-yl)-4-(1H-indol-3-yl)-2,5-dioxo-pyrrolidin-1-ylmethyl]ester]: the IC50 in the assay on HT29 (setting [1]) is 4.45 µM; in the assay with MDA-MB-231 (setting [2]), 5.89 µM.

`O=C1NC(=O)[C@@H](c2cn3c4c(cccc24)CCC3)[C@@H]1c1c[nH]c2ccc(-c3cccc4ccccc34)cc12` (racemic) [Example 37, (±)-Trans-3-(5,6-dihydro-4H-pyrrolo[3,2,1-ij]quinolin-1yl)-4-(5-(1-naphthyl)-1H-indol-3-yl)pyrrolidine-2,5-dione]: the IC50 with HT29 (setting [1]) came out at 37.4 µM; with MDA-MB-231 (setting [2]) it was 43.4 µM.

As to `COc1ccc(-c2ccc3[nH]cc([C@@H]4C(=O)NC(=O)[C@H]4c4cn5c6c(cccc46)CCC5)c3c2)cc1` (racemic) [Example 38, (±)-Trans-3-(5,6-dihydro-4H-pyrrolo[3,2,1-ij]quinolin-1yl)-4-(5-(4-methoxyphenyl)-1H-indol-3-yl)pyrrolidine-2,5-dione], the IC50 in the assay with HT29 (setting [1]) came out at 10.6 µM; in the assay on MDA-MB-231 (setting [2]), 13.1 µM.

As for `Cc1cccc(-c2ccc3[nH]cc([C@@H]4C(=O)NC(=O)[C@H]4c4cn5c6c(cccc46)CCC5)c3c2)c1` (racemic) [Example 39, (±)-Trans-3-(5,6-dihydro-4H-pyrrolo[3,2,1-ij]quinolin-1yl)-4-(5-(3-methylphenyl)-1H-indol-3-yl)pyrrolidine-2,5-dione], in the assay on HT29 (setting [1]), the IC50 amounted to 10.5 µM.

`O=C1NC(=O)[C@@H](c2cn3c4c(cccc24)CCC3)[C@@H]1c1ccc(F)cc1Cl` (racemic) [Example 40, (±)-Trans-3-(5,6-dihydro-4H-pyrrolo[3,2,1-ij]quinolin-1yl)-4-(2-chloro-4-fluorophenyl)pyrrolidine-2,5-dione]: in the assay with HT29 (setting [1]), the IC50 was found to be 10.5 µM.

Turning to `O=C1NC(=O)[C@@H](c2cn3c4c(cccc24)CCC3)[C@@H]1c1c(Cl)cccc1Cl` (racemic) [Example 41, (±)-Trans-3-(5,6-dihydro-4H-pyrrolo[3,2,1-ij]quinolin-1yl)-4-(2,6-dichlorophenyl)pyrrolidine-2,5-dione], the values for the IC50 in the assay with HT29 (setting [1]) and with MDA-MB-231 (setting [2]) were 4.65 µM and 7.63 µM, respectively.

For `O=C1NC(=O)[C@@H](c2cn3c4c(cccc24)CCC3)[C@@H]1c1ccc(Br)cc1` (racemic) [Example 42, (±)-Trans-3-(5,6-dihydro-4H-pyrrolo[3,2,1-ij]quinolin-1yl)-4-(4-bromophenyl)pyrrolidine-2,5-dione], the half-inhibitory concentration (IC50) with HT29 (setting [1]) is 44.1 µM; in the assay on MDA-MB-231 (setting [2]), 49.6 µM.

As to `O=C1NC(=O)[C@@H](c2cn3c4c(cccc24)CCC3)[C@@H]1c1ccc(Cl)cc1` (racemic) [Example 43, (±)-Trans-3-(5,6-dihydro-4H-pyrrolo[3,2,1-ij]quinolin-1yl)-4-(4-chlorophenyl)pyrrolidine-2,5-dione], the values for the 50% inhibitory concentration (IC50) in the assay on HT29 (setting [1]) and in the assay with MDA-MB-231 (setting [2]) were 48.7 µM and 54.5 µM, respectively.

On to `O=C1NC(=O)[C@@H](c2cn3c4c(cccc24)CCC3)[C@@H]1c1ccc(OC(F)(F)F)cc1` (racemic) [Example 44, (±)-Trans-3-(5,6-dihydro-4H-pyrrolo[3,2,1-ij]quinolin-1yl)-4-(4-trifluoromethoxyphenyl)pyrrolidine-2,5-dione], for which the IC50 with HT29 (setting [1]) came to 12.5 µM; with MDA-MB-231 (setting [2]) it was 14.1 µM.

Take `O=C1NC(=O)[C@@H](c2cn3c4c(cccc24)CCC3)[C@@H]1c1ccsc1` (racemic) [Example 45, (±)-Trans-3-(5,6-dihydro-4H-pyrrolo[3,2,1-ij]quinolin-1yl)-4-(thiophen-3-yl)pyrrolidine-2,5-dione]: the IC50 in the assay with HT29 (setting [1]) amounted to 27.6 µM; with MDA-MB-231 (setting [2]), 42.7 µM.

Take `O=C1NC(=O)[C@@H](c2cn3c4c(cccc24)CCC3)[C@@H]1c1ccccc1F` (racemic) [Example 46, (±)-Trans-3-(5,6-dihydro-4H-pyrrolo[3,2,1-ij]quinolin-1yl)-4-(2-fluorophenyl)pyrrolidine-2,5-dione]: the half-maximal inhibitory concentration (IC50) is 4.76 µM with HT29 (setting [1]) and more than 100 µM with MDA-MB-231 (setting [2]).

`O=C1NC(=O)[C@@H](c2cn3c4c(cccc24)CCC3)[C@@H]1c1ccc(Cl)cc1Cl` (racemic) [Example 48, (±)-Trans-3-(5,6-dihydro-4H-pyrrolo[3,2,1-ij]quinolin-1yl)-4-(2,4-dichlorophenyl)pyrrolidine-2,5-dione]: the IC50 was determined as 8.39 µM in the assay on HT29 (setting [1]) and 14.8 µM with MDA-MB-231 (setting [2]).

In the case of `O=C1NC(=O)[C@@H](c2cn3c4c(cccc24)CCC3)[C@@H]1c1ccccc1` (racemic) [Example 49, (±)-Trans-3-(5,6-dihydro-4H-pyrrolo[3,2,1-ij]quinolin-1yl)-4-phenyl-pyrrolidine-2,5-dione], the 50% inhibitory concentration (IC50) in the assay with HT29 (setting [1]) was found to be 14.6 µM.

As for `CC(N)C(=O)OCN1C(=O)[C@@H](c2c[nH]c3ccccc23)[C@H](c2cn3c4c(cccc24)CCC3)C1=O` (mixture of isomers) [Example 57, (±)-trans-2-Amino-propionic acid-3-(5,6-dihydro-4H-pyrrolo[3,2,1-ij]quinolin-1-yl)-4-(1H-indol-3-yl)-2,5-dioxo-pyrrolidin-1-yl methyl ester], the half-inhibitory concentration (IC50) stood at 2.9 µM in the assay on HT29 (72 hours with compound) and 3.14 µM with MDA-MB-231 (72 hours with compound).

`NCC(=O)OCN1C(=O)[C@@H](c2c[nH]c3ccccc23)[C@H](c2cn3c4c(cccc24)CCC3)C1=O` (racemic) [Example 58, (±)-trans-2-Amino-acetic acid-3-(5,6-dihydro-4H-pyrrolo[3,2,1-ij]quinolin-1-yl)-4-(1H-indol-3-yl)-2,5-dioxo-pyrrolidin-1-yl methyl ester]: the IC50 in the assay with HT29 (72 hours with compound) is 2.77 µM; in the assay on MDA-MB-231 (72 hours with compound) it was 3.45 µM.

As for `CN(C)CC(=O)OCN1C(=O)[C@@H](c2c[nH]c3ccccc23)[C@H](c2cn3c4c(cccc24)CCC3)C1=O` (racemic) [Example 59, (±)-trans-2-dimethylamino-acetic acid-3-(5,6-dihydro-4H-pyrrolo[3,2,1-ij]quinolin-1-yl)-4-(1H-indol-3-yl)-2,5-dioxo-pyrrolidin-1-ylmethyl ester], the concentration for half-maximal inhibition (IC50) in the assay with HT29 (setting [1]) came out at 3.74 µM; in the assay with MDA-MB-231 (setting [2]), 4.47 µM.

As for `O=C(OCN1C(=O)[C@@H](c2c[nH]c3ccccc23)[C@H](c2cn3c4c(cccc24)CCC3)C1=O)c1ccncc1` (racemic) [Example 60, (±)-trans-Isonicotinic acid-3-(5,6-dihydro-4H-pyrrolo[3,2,1-ij]quinolin-1-yl)-4-(1H-indol-3-yl)-2,5-dioxo-pyrrolidin-1-ylmethyl ester], the half-inhibitory concentration (IC50) with HT29 (setting [1]) is 3.59 µM; with MDA-MB-231 (setting [2]), 3.55 µM.

For `O=C1NC(=O)[C@@H](c2cn3c4c(cccc24)CCC3)[C@@H]1c1ccc(F)cc1` (racemic) [Example 70, (±)-Trans-3-(5,6-dihydro-4H-pyrrolo[3,2,1-ij]quinolin-1-yl)-4-(4-fluorophenyl)pyrrolidine-2,5-dione], the IC50 with MDA-MB-231 (setting [2]) came out at 49.2 µM.

For `O=C1NC(=O)[C@@H](c2cn3c4c(cccc24)CCC3)[C@@H]1c1ccc(OCc2ccccc2)cc1` (racemic) [Example 71, (±)-Trans-3-[4-(benzyloxy)phenyl]-4-(5,6-dihydro-4H-pyrrolo[3,2,1-ij]quinolin-1-yl)pyrrolidine-2,5-dione], the half-maximal inhibitory concentration (IC50) in the assay with HT29 (setting [1]) was found to be 48.7 µM; in the assay with MDA-MB-231 (setting [2]) it was 97.5 µM.

On to `O=C1NC(=O)[C@@H](c2cn3c4c(cccc24)CN(C(=O)OCc2ccccc2)CC3)[C@@H]1c1c[nH]c2ccccc12` (racemic) [Example 74, (±)-Trans-7-[4-(1H-indol-3-yl)-2,5-dioxo-pyrrolidin-3-yl]-3,4-dihydro-1H-[1,4]diazepino[6,7,1-hi]indole-2-carboxylic acid benzyl ester], for which the IC50 in the assay with HT29 (setting [1]) was 90.7 µM; with MDA-MB-231 (setting [2]), more than 100 µM.

Consider `O=C1NC(=O)[C@@H](c2cn3c4c(cccc24)CNCC3)[C@@H]1c1c[nH]c2ccccc12` (racemic) [Example 75, (±)-Trans-3-(1H-indol-3-yl)-4-(1,2,3,4-tetrahydro-[1,4]diazepino[6,7,1-hi]indol-7-yl)-pyrrolidine-2,5-dione], for which the concentration for half-maximal inhibition (IC50) with HT29 (setting [1]) and in the assay on MDA-MB-231 (setting [2]) was more than 100 µM in each case.

Take `O=C1NC(=O)C(c2cn3c4c(cccc24)CCC3)=C1c1ccc(F)cc1` [Example 67, 3-(5,6-dihydro-4H-pyrrolo[3,2,1-ij]quinolin-1-yl)-4-(4-fluorophenyl)-1H-pyrrole-2,5-dione]: the half-maximal inhibitory concentration (IC50) in the assay on MDA-MB-231 (setting [2]) stood at 57 µM.

In the case of “(±)-Trans-3-(5,6-dihydro-4H-pyrrolo[3,2,1-ij]quinolin-1-yl)-4-(4-fluorophenyl)pyrrolidine-2,5-dione [Example 70]”, the IC50 in the assay with HT29 (72 hours with compound) came to 26.2 µM.
